According to paper PMC4870556, “Triazole resistance mediated by mutations of a conserved active site tyrosine in fungal lanosterol 14α-demethylase” (Scientific Reports, 2016):
Read-outs that look alike come from different tables or passages of the source.

Assays:
[1] = target: T1, wild type ScErg11p6 × His (Saccharomyces cerevisiae, UniProt P10614); experiment: Type II difference spectra triazole binding to affinity purified wild type enzyme; settings: for Hill number / IC50 / Kd: wild-type enzyme 1 μM; for IC50 / Kd: Hill equation fit; for IC50: IC50 value is denoted as [Azole]0.5; for Kd: standard error in brackets; for ΔAmax of type II difference spectra: wild-type enzyme, Ni-NTA affinity purified
T1 construct: full-length Saccharomyces cerevisiae hexahistidine-tagged Erg11p (ScErg11p6 × His); made in house; host or cells: Saccharomyces cerevisiae strain AD3ΔScErg11p (overexpression from the PDR5 locus, native ERG11 deleted)
Experimental: (§1) Ni-NTA affinity purified mutant and wild type ScErg11p6 × His preparations (1 μM) were used to detect and quantitate type II azole binding. The spectral shift of the Soret peak from 417 nm to 421–424 nm in cytochrome P450s is also detected by the type II difference spectra. This change is associated with the replacement of a water molecule coordinated to the heme iron with the azole heterocycle. Type II difference spectra were obtained for FLC, VCZ, ITC and PCZ binding to both mutant enzymes. The binding of FLC is shown as an example (Fig. 2b). The type II difference spectra for the mutant enzymes were less intense than for the wild type enzyme. They gave 2–3-fold smaller differences in absorbance (ΔAmax), with peaks shifted from 428 nm for wild type enzyme to 424–425 nm for the mutant enzymes plus less well-defined troughs between 406–410 nm (Supplementary Table S3). […] These values indicate tight binding for each drug tested.
(§2) The concentration of functional cytochrome P450 for drug binding studies was determined using the carbon monoxide binding spectra according to the protocol described by Guengerich et al.[33]. Affinity purified ScErg11p6 × His used for spectroscopic assays was eluted using affinity purification buffer containing 50 mM L-histidine instead of imidazole. L-histidine was removed from the sample by washing the enzyme with solubilisation buffer containing 16 mM DM using 50 kDa molecular-weight cut-off Amicon Ultra-4 centrifugal filters (Merck Millipore Ltd, Cork, Ireland). The removal of L-histidine was checked by taking the absolute spectra of the sample using the Ultrospec™ 6300 pro UV/Visible spectrophotometer. The heme peak for wild type protein with no ligand was at ~417 nm. With L-histidine bound the peak was detected at ~420 nm. Enzyme concentration was determined by saturating the sample cuvette with CO gas prior to the addition of sodium dithionite. The reference cuvette containing the same amount of enzyme was treated with sodium dithionite only. The P450 concentration was determined by measuring the difference in absorbance between 446 and 490 nm and using the extinction coefficient of 91 mM^−1 cm^−1 [58]. Absorption spectra were recorded with a Cary 1 Bio UV-visible spectrophotometer using 10 mm path UV transparent plastic cuvettes (GE Healthcare Life Sciences, UK). Difference spectra were measured using 1 μM ScErg11p6 × His wild type or Y140F/H enzyme titrated with the triazole drugs ITC, PCZ, VCZ and FLC. Triazole drugs dissolved in DMSO were added to the sample cuvette, with the same amount of DMSO added to the reference cuvette. The total amount of DMSO was <2% of the total volume in the cuvette. Difference spectra between 350–500 nm were recorded and the trough-peak absorbance changes were used to plot binding curves. The dissociation constant Kd for type II binding of triazole drugs was calculated using GraphPad Prism 6 Software (GraphPad Prism, San Diego, CA) by applying the Hill equation using the formula ΔA = ΔAmax [Azole]^n/([Azole]^n + Kd^n), with ΔAmax being the maximum change in absorbance and [Azole] the azole concentration.

ScErg11p6 × His Y140F = target: T2, ScErg11p6 × His Y140F (Saccharomyces cerevisiae, UniProt P10614, Y140F); experiment: Type II difference spectra triazole binding to affinity purified Y140F mutant enzyme; settings: for Hill number / IC50 / Kd: Y140F enzyme 1 μM; for IC50 / Kd: Hill equation fit; for IC50: IC50 value is denoted as [Azole]0.5; for Kd: standard error in brackets; for ΔAmax of type II difference spectra: Y140F enzyme, Ni-NTA affinity purified
T2 construct: full-length Saccharomyces cerevisiae hexahistidine-tagged Erg11p (ScErg11p6 × His); made in house; host or cells: Saccharomyces cerevisiae strain AD3ΔScErg11_Y140F (native ERG11 deleted)
Experimental: as §1, §2

ScErg11p6 × His Y140H = target: T3, ScErg11p6 × His Y140H (Saccharomyces cerevisiae, UniProt P10614, Y140H); experiment: Type II difference spectra triazole binding to affinity purified Y140H mutant enzyme; settings: for Hill number / IC50 / Kd: Y140H enzyme 1 μM; for IC50 / Kd: Hill equation fit; for IC50: IC50 value is denoted as [Azole]0.5; for Kd: standard error in brackets; for ΔAmax of type II difference spectra: Y140H enzyme, Ni-NTA affinity purified
T3 construct: full-length Saccharomyces cerevisiae hexahistidine-tagged Erg11p (ScErg11p6 × His); made in house; host or cells: Saccharomyces cerevisiae strain AD3ΔScErg11_Y140H (native ERG11 deleted)
Experimental: as §1, §2

[2] = tested on: AD3ΔScErg11p (strain overexpressing wild type ScErg11p6 × His); experiment: Broth microdilution MIC80, strain overexpressing wild type enzyme; assay type: cell-based; settings: Saccharomyces cerevisiae, 48 h, pH 6.8
Experimental: (§3) Susceptibilities to triazole drugs of S. cerevisiae AD3Δ strains overexpressing Erg11p6 × His Y140F/H, but with the native ERG11 deleted, were measured as liquid MIC80 values (Supplementary Table S2). Overexpression of ScErg11p6 × His Y140F in the AD3ΔScErg11p_Y140F strain conferred 2-fold lower susceptibility to FLC than the strain overexpressing wild type ScErg11p6 × His i.e. MIC80 of 4.0 μg/ml and 2.1 μg/ml, respectively. The same mutant conferred a 1.7-fold reduction in susceptibility to VCZ. The MIC80 values were 0.42 μg/ml for the strain overexpressing ScErg11p6 × His Y140F and 0.25 μg/ml for the strain overexpressing wild type ScErg11p6 × His.
The S. cerevisiae AD2Δ host was used to create the strains used in this study. The strain was made by deletion of the HIS1 gene from the previously described ADΔ[49] strain. ADΔ and AD2Δ lack 7 major ATP-binding cassette transporters and the PDR3 gene. Both strains have the gain-of function pdr1–3 mutation in the PDR1 transcriptional regulator gene to provide constitutive overexpression of ScErg11p6 × His from the PDR5 locus. Yeast strains were grown on YPD medium: 1% (wt/vol) Bacto-yeast extract (BD Difco™ Laboratories Inc, Franklin Lakes, NJ), 2% (wt/vol) Bacto-peptone (BD Difco™) and 2% (wt/vol) glucose. Synthetic defined (SD) medium was used for selection of transformants. […]
(§4) The susceptibilities of strains overexpressing wild type ScErg11p6 × His and ScErg11p6 × His Y140F/H to triazole drugs were measured as MIC80 values using broth microdilution assays. […] MIC80s to FLC, ITC and VCZ were determined in 96-well microtiter plates using SD buffered to pH 6.8 instead of RPMI[50]. […] Cell growth was assessed by measuring the OD600nm of wells using a BioTek Synergy™ 2 multi-mode plate reader (BioTek Instruments, Vermont, USA). Each MIC80 was determined using triplicate measurements for three clones of each strain in three separate experiments.

AD3ΔScErg11p_Y140F = experiment: Broth microdilution MIC80, strain overexpressing Y140F enzyme; assay type: cell-based, Saccharomyces cerevisiae; settings: for fold lower susceptibility (MIC80) than strain overexpressing wild type ScErg11p6 × His: Y140F strain vs wild type strain
Experimental: as §3
The S. cerevisiae AD2Δ host was used to create the strains used in this study. The strain was made by deletion of the HIS1 gene from the previously described ADΔ[49] strain. ADΔ and AD2Δ lack 7 major ATP-binding cassette transporters and the PDR3 gene. Both strains have the gain-of function pdr1–3 mutation in the PDR1 transcriptional regulator gene to provide constitutive overexpression of ScErg11p6 × His from the PDR5 locus. Yeast strains were grown on YPD medium: 1% (wt/vol) Bacto-yeast extract (BD Difco™ Laboratories Inc, Franklin Lakes, NJ), 2% (wt/vol) Bacto-peptone (BD Difco™) and 2% (wt/vol) glucose. Synthetic defined (SD) medium was used for selection of transformants. It contained 2% (wt/vol) glucose, 0.67% (wt/vol) yeast nitrogen base without amino acids (BD Difco™), 2% (wt/vol) agar (Oxoid Ltd., Hampshire, UK) and either uracil drop-out (Qbiogene, Irvine, CA) or histidine drop-out (Formedium™, Norfolk, UK) complete supplement mixture. Liquid SD media with complete supplement mixture (Formedium™) containing 10 mM MES and 20 mM HEPES buffered with TRIS to pH 6.8 was used for MIC80 determinations.
The susceptibilities of strains overexpressing wild type ScErg11p6 × His and ScErg11p6 × His Y140F/H to triazole drugs were measured as MIC80 values using broth microdilution assays. The MIC80s were defined as 80% growth inhibition compared to no drug controls because triazole drugs are fungistatic rather than fungicidal and can give trailing growth. MIC80s to FLC, ITC and VCZ were determined in 96-well microtiter plates using SD buffered to pH 6.8 instead of RPMI[50]. Cells were seeded at OD600nm = 0.005 (1.5 × 10^4 CFU) and the plates were incubated in 30 °C with shaking at 200 rpm for 48 hrs. Cell growth was assessed by measuring the OD600nm of wells using a BioTek Synergy™ 2 multi-mode plate reader (BioTek Instruments, Vermont, USA). Each MIC80 was determined using triplicate measurements for three clones of each strain in three separate experiments.

AD3ΔScErg11p_Y140H = experiment: Broth microdilution MIC80, strain overexpressing Y140H enzyme; assay type: cell-based; settings: Saccharomyces cerevisiae, 48 h, pH 6.8, 80% growth inhibition, SD medium pH 6.8, 30 °C, native ERG11 deleted
Experimental: as §3
The S. cerevisiae AD2Δ host was used to create the strains used in this study. The strain was made by deletion of the HIS1 gene from the previously described ADΔ[49] strain. […]
as §4

AfCYP51A [3] = settings: cited from earlier work
AfCYP51B [4] = tested on: AfCYP51B; set-up: method as in PMID 26459890; settings: membrane preparations, enzyme heterologously expressed in E. coli; cited from earlier work
AfCYP51A [5] = target: AfCYP51A; set-up: method as in PMID 26459890; settings: type II binding, cited from earlier work
AfCYP51B [6] = target: AfCYP51B; set-up: method as in PMID 26459890; settings: type II binding, Ni-NTA affinity purified enzyme; cited from earlier work
[7] = tested on: C. albicans Erg11p (CaErg11p) Y132F/H; settings: Y132F/H mutations detected in clinical isolates; cited from earlier work
[8] = Saccharomyces cerevisiae, 48 h, pH 6.8

T2 sequence (P10614 whole entry Y140F): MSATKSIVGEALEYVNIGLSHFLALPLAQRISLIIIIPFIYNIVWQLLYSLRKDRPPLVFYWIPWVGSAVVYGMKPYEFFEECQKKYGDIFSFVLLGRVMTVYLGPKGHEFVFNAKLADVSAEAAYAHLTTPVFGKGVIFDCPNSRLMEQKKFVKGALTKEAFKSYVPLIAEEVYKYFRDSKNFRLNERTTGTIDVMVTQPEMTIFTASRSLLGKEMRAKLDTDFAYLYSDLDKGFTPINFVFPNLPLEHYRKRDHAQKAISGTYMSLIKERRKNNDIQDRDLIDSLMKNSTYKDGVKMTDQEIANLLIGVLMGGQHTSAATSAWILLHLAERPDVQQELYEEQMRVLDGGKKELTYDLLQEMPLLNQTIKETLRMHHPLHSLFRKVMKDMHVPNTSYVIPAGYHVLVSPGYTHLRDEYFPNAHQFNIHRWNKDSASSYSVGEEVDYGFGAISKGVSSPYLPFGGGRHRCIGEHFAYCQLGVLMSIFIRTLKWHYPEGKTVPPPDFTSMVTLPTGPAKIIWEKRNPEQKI
T3 sequence (P10614 whole entry Y140H): as the sequence (P10614 whole entry Y140F) above, with F140H counted along it
T1 sequence (P10614 whole entry): as the sequence (P10614 whole entry Y140F) above, with F140Y counted along it

| SMILES | Hill number [1] | IC50 [1] | Kd [1] | ΔAmax of type II difference spectra [1] | Hill number (ScErg11p6 × His Y140F) | IC50 (ScErg11p6 × His Y140F) | Kd (ScErg11p6 × His Y140F) | ΔAmax of type II difference spectra (ScErg11p6 × His Y140F) | Hill number (ScErg11p6 × His Y140H) | IC50 (ScErg11p6 × His Y140H) | Kd (ScErg11p6 × His Y140H) | ΔAmax of type II difference spectra (ScErg11p6 × His Y140H) | MIC80 [2] | MIC80 (AD3ΔScErg11p_Y140F; [8]) | fold lower susceptibility (MIC80) than strain overexpressing wild type ScErg11p6 × His (AD3ΔScErg11p_Y140F) | MIC80 (AD3ΔScErg11p_Y140H) | also measured |
| --- | --- | --- | --- | --- | --- | --- | --- | --- | --- | --- | --- | --- | --- | --- | --- | --- | --- |
| OC(Cn1cncn1)(Cn1cncn1)c1ccc(F)cc1F [FLC, fluconazole] | 3.0 | 430 nM | 74 nM | 0.048 | 1.86 | 330 nM | 130 nM | 0.023 | 1.68 | 270 nM | 110 nM | 0.016 | 2.1 µg/mL | 4 µg/mL | 2 fold | 3.4 µg/mL | IC50 (AfCYP51A [3]; membrane preparations, enzyme heterologously expressed in E. coli): 17000 nM; fold higher IC50 for AfCYP51A compared to AfCYP51B (AfCYP51A [3]; reconstituted membrane assay): 34 fold; IC50 (AfCYP51B [4]): 500 nM; Kd (AfCYP51A [5]; Ni-NTA affinity purified enzyme): 12000 nM; fold difference in Kd values AfCYP51A vs AfCYP51B (AfCYP51A [5]; Ni-NTA affinity purified enzymes): 3 fold; Kd (AfCYP51B [6]): 4000 nM; fold increase in resistance [7]: 4 fold |
| CCC(C)n1ncn(-c2ccc(N3CCN(c4ccc(OCC5COC(Cn6cncn6)(c6ccc(Cl)cc6Cl)O5)cc4)CC3)cc2)c1=O (stereo not drawn) [ITC, itraconazole] | 1.6 | 280 nM | 123 nM | 0.037 | 1.83 | 330 nM | 130 nM | 0.014 | 1.48 | 250 nM | 130 nM | 0.016 | 0.105 µg/mL | – | – | – | MIC80 (AD3ΔScErg11p_Y140F; 80% growth inhibition, SD medium pH 6.8, 30 °C, 48 hrs, native ERG11 deleted): 0.09 µg/mL; MIC80 (AD3ΔScErg11p_Y140F; Saccharomyces cerevisiae, 80% growth inhibition, SD medium pH 6.8, 30 °C, 48 hrs, native ERG11 deleted, read-out: MIC80): 0.09 µg/mL |
| CC[C@@H]([C@H](C)O)n1ncn(-c2ccc(N3CCN(c4ccc(OC[C@@H]5CO[C@@](Cn6cncn6)(c6ccc(F)cc6F)C5)cc4)CC3)cc2)c1=O [PCZ, posaconazole] | 2.2 | 320 nM | 78 nM | 0.031 | 1.57 | 290 nM | 150 nM | 0.016 | 1.57 | 230 nM | 100 nM | 0.016 | – | – | – | – | – |
| C[C@@H](c1ncncc1F)[C@](O)(Cn1cncn1)c1ccc(F)cc1F [VCZ, voriconazole] | 2.7 | 400 nM | 82 nM | 0.051 | 2.60 | 270 nM | 30 nM | 0.019 | 1.23 | 290 nM | 220 nM | 0.018 | 0.25 µg/mL | 0.42 µg/mL | 1.7 fold | 0.29 µg/mL | – |
